Results on 21 molecules are retold here after patent US20200369996A1, “Bioreactor Screening Platform for Modelling Human Systems Biology and for Screening for Inotropic Effects of Agents on the Heart” (NOVOHEART LIMITED, priority 2017, published 2020).

Where “and” joins values, the source holds several entries; their conditions need not be identical. Equal entries are not always repeated. Where two headings read alike, the source gives them in different places.

For data set [1] the following is noted: cited from earlier work; for peak plasma concentration for improved ejection fraction and work product: ref [17].
Data set [2] relates to isolated human atrial tissue. The note with it: isolated human atrial tissue from cardiac bypass; ref [6]; cited from earlier work.
Data set [3] has as its system human ventricular cardiac tissue strips (hvCTS). As to the kind of experiment: hvCTS drug screening: twitch force under electrical pacing. It counts as cell-based. The note with it: for IC50 / EC50: Homo sapiens; for IC50: read-out: IC50, developed contractile force. As to the method:
One of ordinary skill in the art will recognize that the gels can be formed in any of a variety of sizes and shapes, and the molds used to form such gels can also be formed in any of a variety of sizes and shapes, depending on the intended use of the molded gel. The molded mixtures were then bathed with culture medium (DMEM supplemented with 10% newborn calf serum), and maintained in culture with daily half-medium exchanges. Inserts in the casting molds were removed at 48 hours, yielding a self-assembled hvCTS held between 0.5-mm-diameter circular PDMS posts at each end. It is apparent that the posts can be formed from any flexible material amenable to at least one form of sterilization are suitable. As noted above, the whole mold can be scaled up or down depending on the application, and the posts can also be scaled up or down. In general, the height of the posts would be similar to the height of a well (e.g., about 6 mm in an exemplary embodiment). Any of a wide variety of cross-sectional shapes is contemplated as being suitable for use in the system, apparatus and methods according to the disclosure. At 7 days after hvCTS creation, the hvCTS were used for drug screening.
Initially, pharmacological compounds were prepared for screening. Compounds for unblinded “open label” screening were purchased from Sigma and stock solutions at the highest possible concentrations were prepared according to the product information. Working concentrations over a 5-logarithmic range were prepared for each drug.
Working concentrations over a 5-logarithmic range were prepared for each drug according to the dose-range recommendation provided by the supplier.
New born calf serum containing medium was replaced with DMEM high glucose with HEPES without phenol red for optical measurement of generated force in hvCTS. […] The integrated flexible PDMS posts were used as force sensors, with the post deflection captured in real-time with a high-speed camera (100 frames/s) and LabView software (National Instruments, Austin, Tex., USA), applying a beam-bending equation from elasticity theory to calculate twitch force, as described previously^[2] and incorporated herein by reference. These measurements were obtained with the hvCTS maintained in the original molds where they were created with the hvCTS bathed in culture medium at 37° C. For each drug, force generated in response to 9 doses were measured with the drugs added to the hvCTS at half log increments in a cumulative manner. For each dose, the force generated at 0 Hz, 0.5 Hz, 1 Hz, 1.5 Hz and 2 Hz electrical pacing with field electrodes were measured.
Data analysis. Data were calculated and analyzed by a customized MatLab program. Force frequency curves for each drug were generated by plotting the generated force at 0.5 Hz, 1 Hz, 1.5 Hz and 2 Hz at different concentrations. All forces were normalized to the generated force at 0.5 Hz at the drug-free baseline condition (100%).
[…] The force generated under drug-free baseline condition was defined as 100%. The force generated at each drug concentration was then normalized to the generated force under the cognate drug-free baseline condition. The EC50 of each tested drug was estimated by fitting to a four-parameter dose-response equation given as: Y=Bottom+(Top-Bottom)/(1+10^((Log EC^50^−X)*HillSlope)), using commercial software (GraphPad Software Inc.). X is the logarithm of drug concentrations; […]; Top and Bottom are the Y values of the top and bottom plateaus of the curve itself; Baseline is the Y value that defines 0%—maximal inhibition by a standard drug. Hill Slope quantifies the steepness of the dose-response curve (the higher the Hill Slope, the steeper the curve).

Data set [4] relates to human atrial and ventricular cardiomyocytes. The note with it: ref [8]; cited from earlier work.
Data set [5] concerns chick embryonic ventricular cells. The note with it: ref [9]; cited from earlier work.
Data set [6] relates to canine papillary muscle. As to conditions: ref [11]; cited from earlier work.
Data set [7] deals with human atrial trabeculae. As to conditions: ref [13]; cited from earlier work.
In data set [8] the test system is rat atrial trabeculae. The note with it: ref [14]; cited from earlier work.
Data set [9] deals with human right atrial trabeculae. The note with it: ref [21]; cited from earlier work.
Where [10] appears, read: 1 Hz pacing, blinded screening, Example 4.
[11] abbreviates: Blinded, 1 Hz pacing, read-out: -log EC50 in hvCTS (converted).
Setting [12] is: Blinded, 1 Hz pacing, read-out: EC50 in hvCTS (in brackets).
Setting [13] is: 1 Hz pacing, unblinded screening, Example 3.
Where [14] appears, read: Unblinded, 1 Hz pacing, read-out: -log EC50 in hvCTS (converted).
[15] abbreviates: Unblinded, 1 Hz pacing, read-out: EC50 in hvCTS (in brackets).
Setting [16] is: 1 Hz pacing, blinded screening, Example 4, read-out: EC50, developed contractile force.
[17] abbreviates: 1 Hz pacing, unblinded screening, Example 3, read-out: EC50, developed contractile force.

As usually defined, the IC50 is the midpoint of a concentration-inhibition curve. The EC50 is the midpoint of the concentration-response curve. On to `CN(C)CCC=C1c2ccccc2CCc2ccccc21` [Amitriptyline], for which the “plasma concentration in psychiatric patients” value in [1] (ref [5]) was 98-208 ng/mL and 0.35-0.74 μM. Further, in [2], the 30-60% effective concentration was 40-400 μM [6], 30-60% effective concentration. Also, in [3] (setting [10]), the IC50 came out at 450 µM. Besides, the EC50 in data set [3] (setting [11]) is 447 µM; in data set [3] (setting [12]), 450 µM.

Take `CC(=O)Oc1ccccc1C(=O)O` [Aspirin]: the “effect on developed contractile force / contractility” value in data set [3] (blinded screening, Example 4) was “did not show any dose-dependent effect on contractility”.

For `CC(C)COCC(CN(Cc1ccccc1)c1ccccc1)N1CCCC1` (centres unmarked) [Bepridil], the IC50 in data set [3] (setting [13]) is 3.3 µM. Further, the values for the EC50 in data set [3] (setting [14]) and in data set [3] (setting [15]) were 38 µM and 37.9 µM, respectively. The relevant concentration in [4] is 100 μM [8], human atrial and ventricular.

Consider `Cn1c(=O)c2c(ncn2C)n(C)c1=O` [Caffeine], for which the relevant concentration in [5] was 20 mM [9], in chick embryonic ventricular cells. Moreover, the EC50 in data set [3] (setting [16]) was 0.29 µM; in [3] (setting [11]), 0.288 µM; in data set [3] (setting [12]) it was 0.287 µM.

Regarding `C[C@H]1O[C@@H](O[C@H]2[C@@H](O)C[C@H](O[C@H]3[C@@H](O)C[C@H](O[C@H]4CC[C@@]5(C)[C@H](CC[C@@H]6[C@@H]5C[C@@H](O)[C@]5(C)[C@@H](C7=CC(=O)OC7)CC[C@]65O)C4)O[C@@H]3C)O[C@@H]2C)C[C@H](O)[C@@H]1O` [Digoxin], the “relevant concentration, increased pre-ejection period index” value in data set [1] (ref [10]) is 1 ng/ml (1 nM) ([10], increased pre-ejection. Further, the half-maximal effective concentration (EC50) in [3] (read-out: -log EC50 in hvCTS (converted)) is 3.63 µM; in data set [3] (read-out: EC50, developed contractile force), 3.7 µM; in data set [3] (read-out: EC50 in hvCTS (in brackets)), 3.65 µM.

On to `CC(C)N(CCC(C(N)=O)(c1ccccc1)c1ccccn1)C(C)C` (centres unmarked) [Disopyramide], for which, in [6], the “EC50 of developed tension” value is 824 μg [11], EC50 of developed tension in canine. Also, the figures for the EC50 in [3] (setting [17]), in data set [3] (setting [14]) and in data set [3] (setting [15]) were 80 µM, 81.3 µM and 82.2 µM, respectively.

For `CC(CCc1ccc(O)cc1)NCCc1ccc(O)c(O)c1` (centres unmarked) [Dobutamine], the “peak plasma concentration with increased cardiac output” value in data set [1] (ref [12]) is 147-152 ng/ml and 0.487-0.5 μM. For the same molecule, the EC50 in [3] (setting [16]) is 0.25 µM; in data set [3] (setting [17]), 0.015 µM; in data set [3] (setting [11]), 0.245 µM; in [3] (setting [12]) it was 0.25 µM; in data set [3] (setting [14]), 0.0151 µM; in data set [3] (setting [15]) it was 0.015 µM. Further, the relevant concentration in [7] was 0.217 μM [13], human atrial trabeculae.

On to `NCCc1ccc(O)c(O)c1` [Dopamine], for which the relevant concentration in data set [8] is 20 μM [14], in rat atrial trabeculae. In data set [3] (blinded screening, Example 4), the “effect on developed contractile force / contractility” value is given as “did not significantly affect the developed contractile force”.

Turning to `O=C(NCC1CCCCN1)c1cc(OCC(F)(F)F)ccc1OCC(F)(F)F` (centres unmarked) [Flecainide], the IC50 in data set [3] (setting [10]) was 15 µM. For the same molecule, the EC50 in data set [3] (setting [17]) is 75 µM; in [3] (setting [11]) it was 15.1 µM; in [3] (setting [12]) it was 151 µM; in data set [3] (setting [14]) it was 75.9 µM; in data set [3] (setting [15]) it was 75 µM.

Regarding `COc1ccc(Cl)cc1C(=O)NCCc1ccc(S(=O)(=O)NC(=O)NC2CCCCC2)cc1` [Glibenclamide], in data set [1] (after 5 mg oral administration), the “peak plasma concentration for improved ejection fraction and work product” value was 479 ng/ml and 0.096 μM. Also, the EC50 in [3] (setting [16]) was 3.2 µM; in data set [3] (setting [17]), 0.93 µM; in data set [3] (setting [11]) it was 3.16 µM; in data set [3] (setting [12]), 3.17 µM; in data set [3] (setting [14]), 0.933 µM; in data set [3] (setting [15]), 0.93 µM.

`C[C@@H]1CC(=O)NN=C1c1ccc(NN=C(C#N)C#N)cc1` [Levosimendan]: the half-maximal effective concentration (EC50) in data set [3] (setting [17]) is 0.15 µM; in data set [3] (setting [14]) it was 0.145 µM; in data set [3] (setting [15]), 0.15 µM. The relevant concentration in data set [7] is 0.19 μM [13], human atrial trabeculae.

For the molecule `NCCCC[C@H](N[C@@H](CCc1ccccc1)C(=O)O)C(=O)N1CCC[C@H]1C(=O)O` [Lisinopril], the “effect on developed contractile force / contractility” value in data set [3] (blinded screening, Example 4) is “small increase in developed contractile force with increasing concentrations”.

Consider `COCC(=O)O[C@]1(CCN(C)CCCc2nc3ccccc3[nH]2)CCc2cc(F)ccc2[C@@H]1C(C)C` [Mibefradil], for which the IC50 is 38 µM in data set [3] (setting [13]) and 24.5 µM in data set [9]. Also, the EC50 in [3] (setting [14]) is 3.16 µM; in data set [3] (setting [15]), 3.39 µM.

For `Cc1[nH]c(=O)c(C#N)cc1-c1ccncc1` [Milrinone], the EC50 is 2.8 µM in data set [3] (setting [16]); 0.41 µM in data set [3] (setting [17]); 2.75 µM in data set [3] (setting [11]); 2.77 µM in data set [3] (setting [12]); 0.407 µM in data set [3] (setting [14]); 0.41 µM in data set [3] (setting [15]).

On to `COC(=O)C1=C(C)NC(C)=C(C(=O)OC)C1c1ccccc1[N+](=O)[O-]` [Nifedipine], for which the “plasma concentration in patients with ischemic heart disease” value in [1] (ref [23]) is 29-73 ng/ml and 0.083-0.21 μM.

`NC[C@H](O)c1ccc(O)c(O)c1` [Norepinephrine]: in data set [1] (ref [24]), the “plasma level after epinephrine infusion” value is 267 pg/ml and 0.15 nM. In addition, the EC50 is 0.35 µM in data set [3] (setting [16]), 0.347 µM in data set [3] (setting [11]) and 0.35 µM in data set [3] (setting [12]).

As for `CCN(CC)CCNC(=O)c1ccc(N)cc1` [Procainamide], the “EC50 of developed tension” value in data set [6] was 7952 μg [11], EC50 of developed tension in canine.

For the molecule `C=C[C@H]1C[N@@]2CC[C@H]1C[C@@H]2[C@@H](O)c1ccnc2ccc(OC)cc12` [Quinidine], the peak plasma concentration in [1] (at 495 mg, ref [26]) was 2.07 μg/ml and 6.3 μM. The IC50 in [3] (setting [10]) is 200 µM. Besides, the EC50 in data set [3] (setting [11]) is 204 µM; in data set [3] (setting [12]) it was 200 µM.

For the molecule `CCOC(=O)[C@H](CCc1ccccc1)N[C@@H](C)C(=O)N1[C@H](C(=O)O)C[C@@H]2CCC[C@@H]21` [Ramipril], the “effect on developed contractile force / contractility” value in [3] (blinded screening, Example 4) is given as “did not show any dose-dependent effect on contractility”.

As to `Cc1cccc(C)c1NC(=O)C(C)N` (centres unmarked) [Tocainide], the “EC50 of developed tension” value in data set [6] was 1212 μg [11], EC50 of developed tension in canine. For the same molecule, the “effect on developed contractile force” value was “did not show any effect on developed contractile force” in data set [3] (all concentrations and pacing frequencies, unblinded screening, Example 3); “no dose-dependent effect on contractile force” in [3] (all tested pacing frequencies, Example 2 / FIG. 2); “No consistent change in developed contractile force” in [3] (all tested pacing frequencies, Example 2 / FIG. 2, listed as tocainide).

For `CCCCNC(=O)NS(=O)(=O)c1ccc(C)cc1` [Tolbutamide], the “peak plasma concentration for improved ejection fraction and work product” value in data set [1] (after 1250 mg oral administration) was 63.5 μg/ml and 230 μM. Further, the “effect on developed contractile force / contractility” value in data set [3] (blinded screening, Example 4) is on record as “did not show any dose-dependent effect on contractility”.
